The record followed here is US12629374B2, “Antimalarial agents” (Merck Sharp & Dohme LLC, priority 2020, dated 2026).

Each structure is given as a SMILES string.

The subject of one assay is ring stage parasites. Put plainly: Parasite growth potency assay, 72 hours, LDH readout. The format is cell-based. Particulars: 72 h, parasite growth measured by LDH assay after 72 hours at 37° C.; 0.7% rings, 2% haematocrit; read-out: EC50. In short, it runs like this: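 Parasite growth was quantified by LDH assay after a −80 °C freeze-thaw. Before that, compound was incubated for 72 h at 37 °C under humidified gas with ring-stage cultures adjusted to 0.7% parasitemia and 2% haematocrit in serum- and albumax-supplemented RPMI-Hepes.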
A word on the EC50: it is the concentration that produces a half-maximal response. As for `CC(C)[C@]1(C)CC(=O)N([C@H](C)c2cccc(C(=O)N[C@@H]3c4ccccc4C[C@H]3O)c2)C(=N)N1` [Example 27, [(4S)-1-[1-[3-[[(1R,2R)-2-hydroxyindan-1-yl]carbamoyl]phenyl]ethyl]-4-isopropyl-4-methyl-6-oxo-hexahydropyrimidin-2-ylidene]ammonium; 2,2,2-trifluoroacetate], the concentration giving a half-maximal response (EC50) was 3.2 nM.

As for `CC(C)[C@]1(C)CC(=O)N([C@@H](c2cccc(C(=O)N[C@@H]3c4ccccc4C[C@H]3O)c2)C23CC(C2)C3)C(=N)N1` [Example 28, [(4S)-1-[1-bicyclo[1.1.1]pentanyl-[3-[[(1R,2R)-2-hydroxyindan-1-yl]carbamoyl]phenyl]methyl]-4-isopropyl-4-methyl-6-oxo-hexahydropyrimidin-2-ylidene]ammonium; 2,2,2-trifluoroacetate], the EC50 came to 1.1 nM.

With `CC(C)[C@]1(C)CC(=O)N(Cc2cc(F)cc(C(=O)N[C@H]3CCOc4ccccc43)c2)C(=N)N1` [Example 29, [(4S)-1-[[3-[[(4S)-chroman-4-yl]carbamoyl]-5-fluoro-phenyl]methyl]-4-isopropyl-4-methyl-6-oxo-hexahydropyrimidin-2-ylidene]ammonium; 2,2,2-trifluoroacetate], the 50% effective concentration (EC50) turned out to be 7.7 nM.

With `CC(C)[C@]1(C)CC(=O)N(Cc2cc(F)cc(C(=O)N[C@@H]3c4ccccc4C[C@H]3O)c2)C(=N)N1` [Example 30, [(4S)-1-[[3-fluoro-5-[[(1R,2R)-2-hydroxyindan-1-yl]carbamoyl]phenyl]methyl]-4-isopropyl-4-methyl-6-oxo-hexahydropyrimidin-2-ylidene]ammonium; 2,2,2-trifluoroacetate], the EC50 worked out at 3.1 nM.

On to `CCC1(CC)CC(=O)N([C@H](C)c2cccc(C(=O)N[C@H]3CCOc4ccccc43)c2)C(=N)N1` [Example 31, [1-[1-[3-[[(4S)-chroman-4-yl]carbamoyl]phenyl]ethyl]-4,4-diethyl-6-oxo-hexahydropyrimidin-2-ylidene]ammonium; 2,2,2-trifluoroacetate], for which the EC50 was 0.8 nM.

Take `CCC1(CC)CC(=O)N([C@@H](c2cccc(C(=O)N[C@H]3CCOc4ccccc43)c2)C23CC(C2)C3)C(=N)N1` [Example 32, [1-[1-bicyclo[1.1.1]pentanyl-[3-[[(4S)-chroman-4-yl]carbamoyl]phenyl]methyl]-4,4-diethyl-6-oxo-hexahydropyrimidin-2-ylidene]ammonium; 2,2,2-trifluoroacetate]: the EC50 turned out to be 2 nM.

`CCC1(CC)CC(=O)N([C@H](C)c2cccc(C(=O)N[C@@H]3c4ccccc4C[C@H]3O)c2)C(=N)N1` [Example 33, [4,4-diethyl-1-[1-[3-[[(1R,2R)-2-hydroxyindan-1-yl]carbamoyl]phenyl]ethyl]-6-oxo-hexahydropyrimidin-2-ylidene]ammonium; 2,2,2-trifluoroacetate]: the EC50 was determined as 2.8 nM.

In the case of `CCC1(CC)CC(=O)N([C@@H](c2cccc(C(=O)N[C@@H]3c4ccccc4C[C@H]3O)c2)C23CC(C2)C3)C(=N)N1` [Example 34, [1-[1-bicyclo[1.1.1]pentanyl-[3-[[(1R,2R)-2-hydroxyindan-1-yl]carbamoyl]phenyl]methyl]-4,4-diethyl-6-oxo-hexahydropyrimidin-2-ylidene]ammonium; 2,2,2-trifluoroacetate], the EC50 was found to be 0.5 nM.

As to `CCC1(CC)CC(=O)N(Cc2cc(F)cc(C(=O)N[C@@H]3c4ccccc4C[C@H]3O)c2)C(=N)N1` [Example 35, [4,4-diethyl-1-[[3-fluoro-5-[[(1R,2R)-2-hydroxyindan-1-yl]carbamoyl]phenyl]methyl]-6-oxo-hexahydropyrimidin-2-ylidene]ammonium; 2,2,2-trifluoroacetate], the concentration for a half-maximal effect (EC50) stood at 2 nM.

`CCC1(CC)CC(=O)N(Cc2ccnc(C(=O)N[C@@H]3c4ccccc4C[C@H]3O)c2)C(=N)N1` [Example 36, [4,4-diethyl-1-[[2-[[(1R,2R)-2-hydroxyindan-1-yl]carbamoyl]-4-pyridyl]methyl]-6-oxo-hexahydropyrimidin-2-ylidene]ammonium; 2,2,2-trifluoroacetate]: the 50% effective concentration (EC50) was 16.8 nM.

`CCC1(CC)CC(=O)N(Cc2cccc(C(=O)N[C@@H]3c4ccccc4C[C@H]3O)n2)C(=N)N1` [Example 37, [4,4-diethyl-1-[[6-[[(1R,2R)-2-hydroxyindan-1-yl]carbamoyl]-2-pyridyl]methyl]-6-oxo-hexahydropyrimidin-2-ylidene]ammonium; 2,2,2-trifluoroacetate]: the EC50 came to 14.4 nM.

For the compound `CCC1(CC)CC(=O)N(Cc2cc(C(=O)N[C@@H]3c4ccccc4C[C@H]3O)ccn2)C(=N)N1` [Example 38, [4,4-diethyl-1-[[4-[[(1R,2R)-2-hydroxyindan-1-yl]carbamoyl]-2-pyridyl]methyl]-6-oxo-hexahydropyrimidin-2-ylidene]ammonium; 2,2,2-trifluoroacetate], the EC50 was 31.3 nM.

On to `CCC1(CC)CC(=O)N(Cc2cncc(C(=O)N[C@@H]3c4ccccc4C[C@H]3O)c2)C(=N)N1` [Example 39, [4,4-diethyl-1-[[5-[[(1R,2R)-2-hydroxyindan-1-yl]carbamoyl]pyridin-1-ium-3-yl]methyl]-6-oxo-hexahydropyrimidin-2-ylidene]ammonium; 2,2,2-trifluoroacetate], for which the EC50 is 30.4 nM.

`CCC1(CC)CC(=O)N([C@H](Cc2ccccc2)c2cccc(C(=O)N[C@H]3CCOc4ccccc43)c2)C(=N)N1` [Example 40, [1-[1-[3-[[(4S)-chroman-4-yl]carbamoyl]phenyl]-2-phenyl-ethyl]-4,4-diethyl-6-oxo-hexahydropyrimidin-2-ylidene]ammonium; 2,2,2-trifluoroacetate]: the EC50 was found to be 9.7 nM.

`C=CC[C@H](c1cccc(C(=O)N[C@H]2CCOc3ccccc32)c1)N1C(=N)NC(CC)(CC)CC1=O` [Example 41, [1-[1-[3-[[(4S)-chroman-4-yl]carbamoyl]phenyl]but-3-enyl]-4,4-diethyl-6-oxo-hexahydropyrimidin-2-ylidene]ammonium; 2,2,2-trifluoroacetate]: the EC50 stood at 0.9 nM.

With `CCC1(CC)NC(=N)N(Cc2cc(F)cc(C(=O)N[C@H]3CCOc4ccccc43)c2)C(=O)C1C` (stereo partly drawn) [Example 42, [1-[[3-[[(4S)-chroman-4-yl]carbamoyl]-5-fluoro-phenyl]methyl]-4,4-diethyl-5-methyl-6-oxo-hexahydropyrimidin-2-ylidene]ammonium; 2,2,2-trifluoroacetate], the EC50 stood at 10.3 nM.

Turning to `CC[C@]1(C(C)C)CC(=O)N(Cc2cc(F)cc(C(=O)N[C@H]3CCOc4ccccc43)c2)C(=N)N1` [Example 44, [(4R)-1-[[3-[[(4S)-chroman-4-yl]carbamoyl]-5-fluoro-phenyl]methyl]-4-ethyl-4-isopropyl-6-oxo-hexahydropyrimidin-2-ylidene]ammonium; 2,2,2-trifluoroacetate], the EC50 is 2.6 nM.

Staying with this assay, now noted: parasite growth measured by LDH assay after 72 hours at 37° C.; 0.7% rings, 2% haematocrit; trifluoroacetate; read-out: EC50.
In the case of `CCC1(CC)NC(=N)N(Cc2cc(F)cc(C(=O)N[C@H]3CCOc4ccccc43)c2)C(=O)C1C` (stereo partly drawn) [Example 43, [1-[[3-[[(4S)-chroman-4-yl]carbamoyl]-5-fluoro-phenyl]methyl]-4,4-diethyl-5-methyl-6-oxo-hexahydropyrimidin-2-ylidene]ammonium; 2,2,2-trifluoroacetate], the EC50 is 7.2 nM.
